The EC50 is the midpoint of the concentration-response curve. In general, IC50 refers to the concentration that inhibits the measured activity by half. A high value points to weaker potency in that assay. In general, Papp refers to a coefficient for how fast a substance crosses the barrier. What is called solubility is the concentration that dissolves in the medium under given conditions. In general, Emax refers to the maximal effect, on the per cent scale that the assay sets.

Molecules are shown by their SMILES. In brackets after ≈: the same amount, converted by molar mass. Activity calls are given as the source filed them. No cut-off for these calls is given here.

From ChEMBL document CHEMBL5036322 (J Med Chem, 2021) come the findings set out here.

In series [1] the test system is MV4-11. In words: Antiproliferative activity against human MV4-11 cells assessed as reduction in cell viability measured after 3 days by CellTiter-Glo assay. The settings on record: for EC50: MV4-11, 72 h. Format: functional, cell-based. In general terms: ATP-based viability assays read luminescence as a measure of living cells.
Series [2] has as its target Protein cereblon/DNA damage-binding protein 1 (Homo sapiens, UniProt Q96SW2).
The target in series [3] is Protein cereblon/Eukaryotic peptide chain release factor GTP-binding subunit ERF3A (Homo sapiens, UniProt P15170+Q96SW2). Briefly: PROTAC activity at human CRBN/HiBiT-fused GSPT1 transfected in HEK293T cells assessed as induction of GSPT1 degradation measured after 4 hrs by Nano-Glo HiBiT lytic assay. It is filed as cell-based.
Series [4] is described as follows: Apparent permeability of the compound in dog MDCKII-MDR1 cells measured after 1 hr. Format: ADME, cell-based, Canis lupus familiaris. The settings on record: mdck-mdr1, 1 h.
A further series has as its system HD-MB03. Briefly: (§1) Antiproliferative activity against human HD-MB03 cells assessed as reduction in cell viability measured after 3 days by CellTiter-Glo assay. The settings on record: time 3.0 day. Format: functional, cell-based.
The next series relates to MHHCALL4. In words: (§2) Antiproliferative activity against human MHHCALL4 cells harboring CRLF2-rearranged JAK2 mutation assessed as reduction in cell viability measured after 3 days by CellTiter-Glo assay. It is filed as functional, cell-based. The settings on record: time 3.0 day.
Series [5] can be described thus: Cytotoxicity against human PBMC assessed as reduction in cell viability.
Another series has as its system MB004. Briefly: (§3) Antiproliferative activity against human MB004 cells harboring TP53 mutation at codon 274 GTT-TGT assessed as reduction in cell viability measured after 3 days by CellTiter-Glo assay. It is filed as functional, cell-based. The following applies: time 3.0 day.
Series [6] is described as follows: Aqueous solubility of the compound incubated for 18 hrs at pH 7.4 by UV spectrum based analysis. It is filed as physicochemical.
Series [7] concerns MV4-11. In words: Antiproliferative activity against human MV4-11 cells transfected with FLAG-tagged GSPT1 G575N mutant assessed as reduction in cell viability measured after 3 days by CellTiter-Glo assay. Format: functional, cell-based. The following applies: time 3.0 day.
The subject of series [8] is MV4-11. Briefly: Induction of apoptosis in human MV4-11 cells assessed as caspase activation at 10 to 100 nM measured after 8 hrs by luminescent Caspase-Glo assay. It is filed as functional, cell-based. The settings on record: dose 10-100 nM.
Series [9] can be described thus: as §1. Format: functional, cell-based. The following applies: HD-MB03, 72 h.
Series [10] can be described thus: as §2. Format: functional, cell-based. The following applies: MHHCALL4, 72 h.
A short description of series [11]: Protein binding in mouse plasma at 10 uM incubated for 4 hrs by UHPLC-MS/MS analysis. It is filed as ADME, cell-free.
Series [12] is described as follows: Half life in CD-1 mouse liver microsomes measured upto 240 mins in presence of NADPH regenerating system by UHPLC-MS/MS analysis. It is filed as ADME, Microsome. The following applies: 4 h.
Series [13] relates to MV4-11. Briefly: Antiproliferative activity against CRBN knock-out human MV4-11 cells assessed as reduction in cell viability measured after 3 days by CellTiter-Glo assay. Format: functional, cell-based. The settings on record: time 3.0 day.
The species entered for another series is Homo sapiens. In words: Induction of His-tagged CRBN/DDB1/biotin-tagged IKZF1 (unknown origin) ternary complex formation incubated for 90 mins by AlphaScreen assay. In general terms: In Alpha technology, singlet oxygen from a donor bead excites a nearby acceptor bead.
Series [14] deals with MV4-11. Briefly: PROTAC activity at CRBN/FLAG-tagged GSPT1 G575N mutant transfected in human MV4-11 cells assessed as induction of GSPT1 mutant degradation at 1 to 10 uM measured after 24 hrs by immunoblot analysis. It is filed as cell-based. The settings on record: dose 1-10 µM.
Series [15] relates to MV4-11. Briefly: PROTAC activity at CRBN/SERPINF1 in human MV4-11 cells assessed as induction of SERPINF1degradation at 1 uM measured after 4 hrs by tandem mass tag mass spectrometry analysis. Format: cell-based.
The test system of series [16] is MV4-11. Format: cell-based. The settings on record: Homo sapiens, dose 1-10 µM, time 24.0 hrs.
The nature of series [17]: Half life in human liver microsomes measured upto 240 mins in presence of NADPH regenerating system by UHPLC-MS/MS analysis. It is filed as ADME, Microsome. The settings on record: 4 h. In general terms: Microsomes from liver hold many membrane-bound enzymes, among them those of drug oxidation.
The test system of series [18] is MV4-11. Briefly: PROTAC activity at CRBN/GSPT2 in human MV4-11 cells assessed as induction of GSPT2 degradation at 1 uM measured after 4 hrs by tandem mass tag mass spectrometry analysis. Format: cell-based.
The target of series [19] is T1, Protein cereblon/Eukaryotic peptide chain release factor GTP-binding subunit ERF3A (Homo sapiens, UniProt Q96SW2+P15170). The following applies: MV4-11, dose 100.0 nM, time 4.0 hrs.
Target sequence in this assay (P15170 whole entry, looked up): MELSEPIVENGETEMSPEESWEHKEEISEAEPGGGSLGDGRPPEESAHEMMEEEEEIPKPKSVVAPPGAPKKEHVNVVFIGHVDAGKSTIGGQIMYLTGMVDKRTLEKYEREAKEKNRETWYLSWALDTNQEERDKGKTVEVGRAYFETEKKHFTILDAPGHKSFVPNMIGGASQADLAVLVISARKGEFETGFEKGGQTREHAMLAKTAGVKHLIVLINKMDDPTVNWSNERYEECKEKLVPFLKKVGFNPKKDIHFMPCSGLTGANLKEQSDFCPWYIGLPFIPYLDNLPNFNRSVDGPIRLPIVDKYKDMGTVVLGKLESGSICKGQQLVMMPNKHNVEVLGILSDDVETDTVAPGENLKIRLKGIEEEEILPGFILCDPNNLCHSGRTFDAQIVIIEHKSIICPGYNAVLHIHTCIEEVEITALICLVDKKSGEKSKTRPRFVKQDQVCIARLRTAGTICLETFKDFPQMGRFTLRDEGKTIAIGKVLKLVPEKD
Target sequence in this assay (Q96SW2 whole entry, looked up): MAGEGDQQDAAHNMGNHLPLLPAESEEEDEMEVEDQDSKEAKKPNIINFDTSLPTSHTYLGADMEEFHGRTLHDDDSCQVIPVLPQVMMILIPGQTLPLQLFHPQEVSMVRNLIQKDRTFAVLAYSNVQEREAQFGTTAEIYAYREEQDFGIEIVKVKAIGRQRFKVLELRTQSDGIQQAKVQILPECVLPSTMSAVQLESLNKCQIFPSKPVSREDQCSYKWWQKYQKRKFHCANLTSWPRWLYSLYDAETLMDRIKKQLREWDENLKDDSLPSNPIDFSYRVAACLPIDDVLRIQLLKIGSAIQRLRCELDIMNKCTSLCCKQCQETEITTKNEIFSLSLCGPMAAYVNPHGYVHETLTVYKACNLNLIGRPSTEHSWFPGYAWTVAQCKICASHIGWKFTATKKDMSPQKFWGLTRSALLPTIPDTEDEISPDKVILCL
The subject of series [20] is MV4-11. Briefly: Antiproliferative activity against human MV4-11 cells assessed as reduction in cell viability measured after 3 days in presence of CRBN ligand, lenalidomide by CellTiter-Glo assay. Format: functional, cell-based. The following applies: time 3.0 day.
A short description of series [21]: as §3. It is filed as functional, cell-based. The settings on record: MB004, 72 h.
The nature of series [22]: Protein binding in human plasma at 10 uM incubated for 4 hrs by UHPLC-MS/MS analysis. It is filed as ADME, cell-free.
Series [23] has as its target T1, Protein cereblon/Eukaryotic peptide chain release factor GTP-binding subunit ERF3A. The settings on record: mhhcall4.
Target sequence in this assay (Q96SW2 whole entry): as the sequence (Q96SW2 whole entry, looked up) above
Target sequence in this assay (P15170 whole entry): as the sequence (P15170 whole entry, looked up) above
Series [24] has as its system MV4-11. In words: Induction of apoptosis in human MV4-11 cells assessed as caspase activation at 10 to 100 nM measured after 24 hrs by luminescent Caspase-Glo assay. It is filed as functional, cell-based. The following applies: dose 10-100 nM.
The target in series [25] is T1, Protein cereblon/Eukaryotic peptide chain release factor GTP-binding subunit ERF3A. The settings on record: MV4-11, dose 100.0 nM, time 24.0 hrs.
Target sequence in this assay (P15170 whole entry, looked up): as above
Target sequence in this assay (Q96SW2 whole entry, looked up): as the sequence (Q96SW2 whole entry, looked up) above

Protein cereblon/Eukaryotic peptide chain release factor GTP-binding subunit ERF3A (Homo sapiens, UniProt P15170+Q96SW2), sequence (Q96SW2 whole entry, the tested form may be a part): as the sequence (Q96SW2 whole entry, looked up) above
Protein cereblon/Eukaryotic peptide chain release factor GTP-binding subunit ERF3A (Homo sapiens, UniProt P15170+Q96SW2), sequence (P15170 whole entry, the tested form may be a part): as the sequence (P15170 whole entry, looked up) above
Protein cereblon/DNA damage-binding protein 1, sequence (Q96SW2 whole entry, the tested form may be a part): as the sequence (Q96SW2 whole entry, looked up) above
Protein cereblon/DNA damage-binding protein 1, sequence (Q16531 whole entry, further chain, the tested form may be a part): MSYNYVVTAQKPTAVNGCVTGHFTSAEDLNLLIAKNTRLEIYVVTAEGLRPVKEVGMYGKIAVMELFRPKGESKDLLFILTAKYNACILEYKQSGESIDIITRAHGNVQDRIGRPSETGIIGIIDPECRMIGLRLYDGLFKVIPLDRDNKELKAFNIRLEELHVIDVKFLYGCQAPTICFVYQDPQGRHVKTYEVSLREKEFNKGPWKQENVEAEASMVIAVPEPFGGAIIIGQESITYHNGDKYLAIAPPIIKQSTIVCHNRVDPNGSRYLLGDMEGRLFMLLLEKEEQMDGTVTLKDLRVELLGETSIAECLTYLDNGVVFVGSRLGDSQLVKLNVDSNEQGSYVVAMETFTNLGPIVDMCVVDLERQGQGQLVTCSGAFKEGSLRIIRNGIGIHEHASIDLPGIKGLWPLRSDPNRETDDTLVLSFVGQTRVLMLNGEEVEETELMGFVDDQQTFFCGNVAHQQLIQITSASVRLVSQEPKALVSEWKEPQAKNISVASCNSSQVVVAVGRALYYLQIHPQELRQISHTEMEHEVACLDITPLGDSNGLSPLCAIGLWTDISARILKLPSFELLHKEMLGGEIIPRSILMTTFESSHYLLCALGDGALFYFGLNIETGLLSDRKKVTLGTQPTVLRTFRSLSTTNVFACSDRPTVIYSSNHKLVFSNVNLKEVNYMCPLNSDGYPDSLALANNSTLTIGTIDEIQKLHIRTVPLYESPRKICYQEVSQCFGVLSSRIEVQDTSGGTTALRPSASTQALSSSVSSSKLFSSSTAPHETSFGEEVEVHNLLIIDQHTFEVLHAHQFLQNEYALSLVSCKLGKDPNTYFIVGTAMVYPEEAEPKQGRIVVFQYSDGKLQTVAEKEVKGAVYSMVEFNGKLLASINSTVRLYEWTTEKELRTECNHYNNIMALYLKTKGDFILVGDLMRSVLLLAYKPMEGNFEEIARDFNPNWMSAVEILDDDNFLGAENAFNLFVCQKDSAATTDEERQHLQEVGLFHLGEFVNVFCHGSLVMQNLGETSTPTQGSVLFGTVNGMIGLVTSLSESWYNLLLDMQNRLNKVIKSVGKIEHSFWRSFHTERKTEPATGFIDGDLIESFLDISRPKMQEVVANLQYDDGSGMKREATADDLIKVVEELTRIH

For the compound `Cc1ccc(S(=O)(=O)Nc2ccc3c(c2)C(=O)N(C2CCC(=O)NC2=O)C3=O)cc1Cl` (stereo not given), the EC50 (in the series with MV4-11 [1]; in [3]) was more than 10000 nM throughout. This compound also yielded an IC50 in series [2] of 1 nM. The apparent permeability coefficient (Papp) in [4] was 4.6 ×10⁻⁶ cm/s.

In the case of `Cc1ccc(NC(=O)NCc2ccc3c(c2)CN(C2CCC(=O)NC2=O)C3=O)cc1Cl` (stereo not given), the outcome in the series on HD-MB03, with MHHCALL4, with MV4-11 [1] (time 3.0 day) and with MB004 was Active. The IC50 in [2] stood at 18 nM. For the same compound, in series [5], the Activity result is recorded as “Toxic”.

Regarding `COc1ccccc1S(=O)(=O)Nc1ccc2c(c1)C(=O)N(C1CCC(=O)NC1=O)C2=O` (stereo not given), the EC50 (with MV4-11 [1]; in series [3]) was more than 10000 nM throughout. The IC50 in series [2] was 612 nM. This compound also yielded a solubility at 18 h in series [6] of 85 µM (≈ 37.7 µg/mL). In series [4], the apparent permeability coefficient (Papp) amounted to 0.6 ×10⁻⁶ cm/s.

As to `O=C1CCC(N2C(=O)c3ccc(NS(=O)(=O)c4ccccc4)cc3C2=O)C(=O)N1` (stereo not given), the EC50 (in the series with MV4-11 [1]; in series [3]) was more than 10000 nM throughout. In [2], this compound showed a 50% inhibitory concentration (IC50) of 3 nM. Besides, the solubility at 18 h in series [6] was found to be 71 µM (≈ 29.4 µg/mL). In [4], the Papp was 3.6 ×10⁻⁶ cm/s.

On to `O=C1CCC(N2C(=O)c3ccc(NS(=O)(=O)c4ccccc4OC(F)(F)F)cc3C2=O)C(=O)N1` (stereo not given), for which the result in the series on MV4-11 [7], in the series on MV4-11 [13], in the series listed under Homo sapiens, in the series with MV4-11 [14], in the series with MV4-11 [16] and in the series with MV4-11 [20] was inactive. In addition, the outcome in the series on MV4-11 [8], with MV4-11 [15] and with MV4-11 [18] was Active. For the same compound, the 50% effective concentration (EC50) in [9] is 3580 nM; in series [10], 0.4 nM; in the series with MV4-11 [1], 1.5 nM; in series [21] it was 336 nM. Also, the figures for the PPB in [11] and in [22] were 99.3% and 99.1%, respectively. In addition, the solubility at 18 h in [6] was 67 µM (≈ 33.3 µg/mL). The t1/2 in [12] amounted to 4.7 h; in series [17], 5.7 h. Further, the Emax in series [19] was 90%. The Activity entry in [5] is recorded as “Toxic”. For the same compound, the DC50 entry in series [23] is reported as “Not Active”. The Papp in series [4] worked out at 2.3 ×10⁻⁶ cm/s.

`Cc1ccccc1S(=O)(=O)Nc1ccc2c(c1)C(=O)N(C1CCC(=O)NC1=O)C2=O` (stereo not given): the values for the EC50 (in the series on MV4-11 [1]; in series [3]) were 7400 nM and 9320 nM, respectively. In [2], this compound returned an IC50 of 11 nM. Further, the solubility at 18 h in series [6] turned out to be 84 µM (≈ 35.9 µg/mL). Further, the Papp in series [4] is 6.8 ×10⁻⁶ cm/s.

As to `O=C1CCC(N2Cc3cc(CNC(=O)C(F)(F)c4ccc(Cl)cc4)ccc3C2=O)C(=O)N1` (stereo not given), the concentration for a half-maximal effect (EC50) in the series with MV4-11 [1] worked out at 62 nM. The solubility at 18 h in series [6] was 77 µM (≈ 35.6 µg/mL). In addition, the Activity entry in series [5] is “Toxic”. Moreover, the Papp in series [4] was 4.9 ×10⁻⁶ cm/s.

Regarding `O=C1CCC(N2C(=O)c3ccc(NS(=O)(=O)c4ccccc4C(F)(F)F)cc3C2=O)C(=O)N1` (stereo not given), the values for the half-maximal effective concentration (EC50) (in the series on MV4-11 [1]; in series [3]) were 89 nM and 52 nM, respectively. The compound further returned a concentration for half-maximal inhibition (IC50) in series [2] of 337 nM. The amount in solution in series [6] (solubility at 18 h) came to 66 µM (≈ 31.8 µg/mL). Further, in [4], the apparent permeability (Papp) was 1.4 ×10⁻⁶ cm/s.

Take `O=C1CCC(N2C(=O)c3ccc(NS(=O)(=O)c4ccc(OC(F)(F)F)cc4)cc3C2=O)C(=O)N1` (stereo not given): the EC50 (in the series on MV4-11 [1]; in series [3]) was more than 10000 nM in each case. Also, the half-maximal inhibitory concentration (IC50) in series [2] was found to be 9 nM. The same compound registered a solubility at 18 h in [6] of 76 µM (≈ 37.8 µg/mL). The Papp in [4] is 1.1 ×10⁻⁶ cm/s.

For the compound `O=C1CCC(N2C(=O)c3ccc(NS(=O)(=O)c4cccc(OC(F)(F)F)c4)cc3C2=O)C(=O)N1` (stereo not given), the EC50 (in the series with MV4-11 [1]; in series [3]) was more than 10000 nM each time. In [2], this compound yielded an IC50 of 10 nM. In [6], this compound came in with a solubility at 18 h of 64 µM (≈ 31.8 µg/mL). For the same compound, in series [4], the Papp was 4 ×10⁻⁶ cm/s.

For `Cc1c(Cl)cccc1S(=O)(=O)Nc1ccc2c(c1)C(=O)N(C1CCC(=O)NC1=O)C2=O` (stereo not given), the result in the series on MV4-11 [7], with MV4-11 [13], in the series filed under Homo sapiens, in the series on MV4-11 [14], in the series with MV4-11 [16] and in the series on MV4-11 [20] was inactive. Further, the EC50 was more than 8000 nM in [9], 4.4 nM in series [10] and 1100 nM in [21]. For the same compound, the solubility at 18 h in series [6] came out at 64 µM (≈ 29.6 µg/mL). In addition, the result in the series with MV4-11 [24] was Active. The compound also gave a maximal effect (Emax) in series [25] of 90%. In [5], the Activity entry is “Toxic”. For the same compound, the Papp in series [4] worked out at 3.6 ×10⁻⁶ cm/s.

For the compound `O=C1CCC(N2C(=O)c3ccc(NS(=O)(=O)c4cccc(Cl)c4)cc3C2=O)C(=O)N1` (stereo not given), the EC50 (in the series with MV4-11 [1]; in [3]) was more than 10000 nM in each case. Besides, the IC50 in series [2] was determined as 23 nM. Moreover, in series [6], the solubility at 18 h turned out to be 74 µM (≈ 33.1 µg/mL). In series [4], the apparent permeability (Papp) was found to be 1.7 ×10⁻⁶ cm/s.
